In patent publication US20230286946A1, “DIFLUOROMETHYL-PYRIDIN-2-YL TRIAZOLES” (Boehringer Ingelheim International GmbH, priority 2020, published 2023):

Target: T1, α5ß2 γ2 GABAA Receptor (Homo sapiens, UniProt P18507+P31644)
T1 sequence (P31644 32-462): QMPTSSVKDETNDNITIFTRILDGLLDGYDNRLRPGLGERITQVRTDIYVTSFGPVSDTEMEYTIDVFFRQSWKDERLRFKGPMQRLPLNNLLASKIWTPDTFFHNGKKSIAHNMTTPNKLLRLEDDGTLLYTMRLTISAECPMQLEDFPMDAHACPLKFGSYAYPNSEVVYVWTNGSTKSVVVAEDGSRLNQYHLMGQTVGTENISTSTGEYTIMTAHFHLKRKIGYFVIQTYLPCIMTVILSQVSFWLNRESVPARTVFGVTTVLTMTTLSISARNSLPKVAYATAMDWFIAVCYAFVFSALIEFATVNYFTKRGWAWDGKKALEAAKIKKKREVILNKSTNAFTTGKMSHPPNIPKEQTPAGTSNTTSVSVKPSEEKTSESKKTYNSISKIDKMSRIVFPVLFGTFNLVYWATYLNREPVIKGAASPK
T1 sequence (P18507 40-376 limits assumed): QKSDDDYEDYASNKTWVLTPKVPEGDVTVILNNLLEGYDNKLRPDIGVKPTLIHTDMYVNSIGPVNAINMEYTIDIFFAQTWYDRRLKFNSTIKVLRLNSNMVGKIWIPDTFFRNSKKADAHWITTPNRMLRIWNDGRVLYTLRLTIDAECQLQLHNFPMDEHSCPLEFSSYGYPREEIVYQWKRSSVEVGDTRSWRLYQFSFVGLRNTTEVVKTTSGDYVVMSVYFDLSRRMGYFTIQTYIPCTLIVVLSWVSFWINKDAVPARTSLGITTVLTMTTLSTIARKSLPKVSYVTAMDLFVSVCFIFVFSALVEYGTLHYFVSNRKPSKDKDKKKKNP
Test: Assay B: in vitro evaluation of modulation of α5ß2γ2 GABAA receptor, two-electrode voltage clamp in oocytes
Format: cell-based
Conditions: for EC50: co-application with 0.5 μM GABA, oocytes, read-out: Assay B: GABAA α 5 β 3 γ 2 EC50
Description: Assay B: In Vitro Evaluation of Modulation of α5ß2 γ2 GABAA Receptor.
Modulatory efficacy of compounds of formular (I) is determined electrophysiological recordings in oocytes using the two-electrode voltage clamp (TEVC) technique. Oocytes are injected with cRNA for human GABAA receptor subunits α5, ß2 and γ2 in a 3:1:3 ratio and modulatory efficacy is evaluated by co-applications with a submaximal EC5-20 GABA concentration (0.5 μM) termed GABA control. As a standard, the compounds are tested in five concentrations (3.16, 0.316, 0.0316, 0.00316 and 0.000316 μM) on each oocyte starting with the lowest concentration. Background subtracted peak current amplitudes are normalized to the respective GABAcontrol current, converted to % change and depicted +/−S.E.M. as a function of increasing compound concentrations. Plotted datapoints are fitted to the empirical Hill equation using non-linear regression. 95% confidence intervals for maximal efficacy (Bottom) and potency (Log EC50) are derived from this fitting routine.

| Assay B: GABAA α 5 β 3 γ 2 Emax vs GABA | EC50 | Structure (SMILES) |
| --- | --- | --- |
| -13.2% | 78.9 nM | Cc1ncnn1-c1ccc(OCc2c(-c3ccc(C(F)F)cn3)nnn2C)nn1 [Example 48, 3-({4-[5-(difluoromethyl)pyridin-2-yl]-1-methyl-1H-1,2,3-triazol-5-yl}methoxy)-6-(5-methyl-1H-1,2,4-triazol-1-yl)pyridazine] |
| -24.6% | 354 nM | Cn1nnc(-c2ccc(C(F)F)cn2)c1COc1ccc(-c2cnccn2)nn1 [Example 39] |
| -24.7% | 34.7 nM | Cc1n[nH]c(C)c1-c1ccc(OCc2c(C)nnn2-c2ccc(C(F)F)cn2)nn1 [Example 15] |
| -21% | 89 nM | CNc1cccc(-c2ccc(OCc3c(C)nnn3-c3ccc(C(F)F)cn3)nn2)n1 [Example 14] |
| -24.7% | 6.6 nM | Cc1cc(-c2ccc(OCc3c(C)nnn3-c3ccc(C(F)F)cn3)nn2)cnn1 [Example 3] |
| -22.3% | 93 nM | Cc1nnn(-c2ccc(C(F)F)cn2)c1COc1ccc(-c2cn[nH]c2)nn1 [Example 4] |
| -8.8% | 13.9 nM | Cc1nnn(-c2ccc(C(F)F)cn2)c1COc1ccc(-c2cccc(C(N)=O)c2)nn1 [Example 6] |
| -12.3% | 20 nM | COc1ncc(-c2ccc(OCc3c(-c4ccc(C(F)F)cn4)nnn3C)nn2)cn1 [Example 31] |
| 2.7% | – | Cc1nnn(-c2ccc(C(F)F)cn2)c1COc1ccc(-c2ccc(C#N)nc2)nn1 [Example 8] |
| -20.3% | 85.9 nM | Cc1nnn(-c2ccc(C(F)F)cn2)c1COc1ccc(-c2ccc(S(C)(=O)=O)nc2)nn1 [Example 16] |
| -17.7% | 14.5 nM | Cc1nnn(-c2ccc(C(F)F)cn2)c1COc1ccc(-c2cnccn2)nn1 [Example 56, 3-({1-[5-(difluoromethyl)pyridin-2-yl]-4-methyl-1H-1,2,3-triazol-5-yl}methoxy)-6-(pyrazin-2-yl)pyridazine] |
| -12.3% | 147 nM | Cc1nnn(-c2ccc(C(F)F)cn2)c1COc1ccc(-c2ccc(C#N)s2)nn1 [Example 12] |
| -22.5% | 22.8 nM | Cc1nnn(-c2ccc(C(F)F)cn2)c1COc1ccc(-n2ncnc2C)nn1 [Example 38] |
| -25% | 15.8 nM | Cc1nnn(-c2ccc(C(F)F)cn2)c1COc1ccc(-n2cnc(C#N)c2)nn1 [Example 42, 1-[6-({1-[5-(difluoromethyl)pyridin-2-yl]-4-methyl-1H-1,2,3-triazol-5-yl}methoxy)pyridazin-3-yl]-1H-imidazole-4-carbonitrile] |
| -29% | 11.5 nM | Cc1c(-c2ccc(OCc3c(-c4ccc(C(F)F)cn4)nnn3C)nn2)cc(C#N)n1C [Example 29] |
| -11% | 8.2 nM | Cn1nnc(-c2ccc(C(F)F)cn2)c1COc1ccc(-c2ccc(N)nc2)nn1 [Example 25] |
| -20% | 14.6 nM | Cn1nnc(-c2ccc(C(F)F)cn2)c1COc1ccc(-c2cccc(C(N)=O)c2)nn1 [Example 28] |
| -13.7% | 12 nM | Cn1nnc(-c2ccc(C(F)F)cn2)c1COc1ccc(-n2cccn2)nn1 [Example 50] |
| -9.6% | 63 nM | Cn1nnc(-c2ccc(C(F)F)cn2)c1COc1ccc(-c2cnc3nonc3c2)nn1 [Example 35] |

| Assay B: GABAA α 5 β 3 γ 2 Emax vs GABA | EC50 | Structure (SMILES) |
| --- | --- | --- |
| -28.5% | 64 nM | Cc1nnn(-c2ccc(C(F)F)cn2)c1COc1ccc(-c2ccc(N)nc2)nn1 [Example 19] |
| 5.7% | – | Cn1nnc(-c2ccc(C(F)F)cn2)c1COc1ccc(-n2cc(C#N)cn2)nn1 [Example 49] |
| -14.9% | 26.9 nM | CCn1cc(-c2ccc(OCc3c(-c4ccc(C(F)F)cn4)nnn3C)nn2)cn1 [Example 22] |
| -25.3% | 92.5 nM | Cc1nnn(-c2ccc(C(F)F)cn2)c1COc1ccc(-c2cnc(N)nc2)nn1 [Example 2] |
| -3.3% | – | Cn1nnc(-c2ccc(C(F)F)cn2)c1COc1ccc(-c2cnn(C3CCC3)c2)nn1 [Example 32] |
| -14.7% | 9.8 nM | Cn1nnc(-c2ccc(C(F)F)cn2)c1COc1ccc(-c2cn[nH]c2)nn1 [Example 24] |
| -24.9% | 41.3 nM | Cc1nnn(-c2ccc(C(F)F)cn2)c1COc1ccc(-c2ccc(=O)n(C)c2)nn1 [Example 1, 5-[6-({1-[5-(difluoromethyl)pyridin-2-yl]-4-methyl-1H-1,2,3-triazol-5-yl}methoxy)pyridazin-3-yl]-1-methyl-1,2-dihydropyridin-2-one] |
| -32.3% | 11.6 nM | Cc1nnn(-c2ccc(C(F)F)cn2)c1COc1ccc(-c2c[nH]c(=O)c(F)c2)nn1 [Example 20] |
| – | 3.9 nM | Cn1nnc(-c2ccc(C(F)F)cn2)c1COc1ccc(-n2ccc(C#N)n2)nn1 [Example 53] |
| -20.2% | 24.8 nM | Cc1nnn(-c2ccc(C(F)F)cn2)c1COc1ccc(-n2nccn2)nn1 [Example 43] |
| -32.3% | 11.6 nM | Cc1nnn(-c2ccc(C(F)F)cn2)c1COc1ccc(-c2cc[nH]n2)nn1 [Example 5] |
| -6.3% | 12.7 nM | Cc1nnn(-c2ccc(C(F)F)cn2)c1COc1ccc(-c2cnn(CC#N)c2)nn1 [Example 7] |
| -8% | 3.1 nM | Cn1nnc(-c2ccc(C(F)F)cn2)c1COc1ccc(-c2ccc(S(C)(=O)=O)nc2)nn1 [Example 23] |
| -21% | 29.5 nM | Cc1c(-c2ccc(OCc3c(-c4ccc(C(F)F)cn4)nnn3C)nn2)cnn1C [Example 33] |
| -33.2% | 1 nM | Cc1nnn(-c2ccc(C(F)F)cn2)c1COc1ccc(-c2ccnnc2)nn1 [Example 17] |
| -16% | 2 nM | Cn1nnc(-c2ccc(C(F)F)cn2)c1COc1ccc(-n2cnc(C#N)c2)nn1 [Example 52] |
| -28.7% | 23.3 nM | Cc1ncc(-c2ccc(OCc3c(C)nnn3-c3ccc(C(F)F)cn3)nn2)o1 [Example 18] |
| -4.7% | 4.6 nM | Cc1nn(C)cc1-c1ccc(OCc2c(-c3ccc(C(F)F)cn3)nnn2C)nn1 [Example 30] |
| -25.3% | 37.3 nM | Cc1nnn(-c2ccc(C(F)F)cn2)c1COc1ccc(-n2cc(C#N)cn2)nn1 [Example 37] |
